Experimental data: patent US6682753B2, “Methods for promoting weight gain using GPE-related compounds” (NeuronZ Limited, priority 2001, dated 2004)

What was measured:
[1] = Body weight gain over 14 days in rats after unilateral fimbria-fornix lesion with daily intracerebroventricular infusion; type: in vivo, male Wistar rats; settings: lesioned rats; daily icv infusion of 2 μL for 14 days: GPE 3 μg/day, IGF-I 20 μg/day, NGF 1 μg/day
Text: A group of male Wistar rats weighing 174-193 g (University of Auckland, Animal Resources Unit) were divided randomly into the following groups: “control”, “sham”, “vehicle”, “GPE”, “IGF-I”, and “NGF”, depending on the treatment each animal was to undergo. “Control” animals were weighed at the first and last time points and were not treated or handled at any other time. “Sham” animals underwent a sham surgery of anesthesia, incision through the scalp skin, drill hole through the skull, bone wax to seal the drill hole, and sutures for the skin incision. They were then handled daily in mock infusions to mimic handling of animals that received lesions and intracerebroventricular infusions.
“Vehicle”, “GPE”, “IGF-I”, and “NGF” animals were anaesthetized with 75 mg/Kg sodium pentobarbital and positioned in a stereotaxic apparatus (Kopf Instruments, USA), and underwent unilateral fimbria-fomix lesions to lesion septal cholinergic neurons and chronic cannula implantation into the left lateral cerebral ventricle. Fomix-fimbria lesions were performed by transecting the fimbria-fornix projection using a specialized retractable wire Scouten knife (Kopf Instruments) designed to minimize tissue damage except at the required lesion site. Anaesthetized animals received an incision through their scalp skin and a small drill hole was made in the skull at the stereotaxic coordinates anterior-posterior (AP) axis−1.0 mm from the bregma and medial-lateral (ML) axis+2.5 mm from midline (left side), from an atlas of the rat brain (Paxinos et al. (1986), “The rat brain in stereotaxic coordinates”, Academic Press, London). The knife was lowered into the brain through the drill hole to the coordinate+6.0 mm ventral to the skull on the dorsal-ventral (DV) axis. The knife blade was then extended 2.5 mm toward midline at an angle of 30° caudal to the bregma. The knife, with blade extended, was then raised 4.5 mm dorsally to axotomize the fimbria-fomix fibres. The blade was then retracted, the knife lowered 4.5 mm to its original coordinate, and the process was repeated. […]

[2] = administered into the brain following transient ischemia to the forebrain, adult rats; cited from earlier work
[3] = Weight gain in human patient suffering from a head injury, central administration (Examples 2-4); type: in vivo; settings: 14 days
Experimental: GPE in a dose of 10 μg/Kg/day is administered via lateral cerebroventricular injection into the brain of a human patient suffering from a head injury to promote weight gain to normal levels. Alternatively, a GPE analog is administered. Treatment is commenced as soon as possible after the head injury and then for 14 days thereafter.
A GPE analog in a dose of 20 μg/Kg/day is administered via focal injection into the lateral cerebral ventricle of a human patient suffering from a head injury to promote weight gain to normal levels. Alternatively, GPE is administered. Treatment is commenced as soon as possible after the head injury and then for 14 days thereafter.
GPE in a dose of 5 μg/Kg/day is administered via a surgically inserted shunt into the lateral cerebral ventricle of a human patient suffering from a head injury to promote weight gain to normal levels. Alternatively, a GPE analog is administered. Treatment is commenced as soon as possible after the head injury and then for 14 days thereafter.

[4] = infused in the brain of adult rats after partial or full lesions (e.g. partial fimbria-fornix transection); cited from earlier work

| Molecule | weight gain over the 14 days [1] | effect on body weight gain [4] | also measured |
| --- | --- | --- | --- |
| IGF-I: insulin-like growth factor I (IGF-I) | minimal weight gain | – | effect on body weight [2]: cause weight gain |
| NCC(=O)N1CCC[C@H]1C(=O)N[C@@H](CCC(=O)O)C(=O)O [GPE, glycyl-L-prolyl-L-glutamic acid] | the normally expected weight gain occurred | – | weight gain in patient ([3]; 5 μg/Kg/day via surgically inserted shunt into the lateral cerebral ventricle): Normal weight gain is promoted; weight gain in patient ([3]; 10 μg/Kg/day via lateral cerebroventricular injection): Normal weight gain is promoted; weight gain in patient ([3]; 20 μg/Kg/day via focal injection into the lateral cerebral ventricle): Normal weight gain is promoted |
| NGF: Nerve growth factor (NGF) | no weight gain | either decrease normal body weight gain or cause weight loss | – |
| bFGF: basic fibroblast growth factor (bFGF) | – | either decrease normal body weight gain or cause weight loss | – |
| BDNF: brain-derived neurotrophic factor (BDNF) (protein, UniProt P23560 19-247, looked up) Neurotrophic factor BDNF …: APMKEANIRGQGGLAYPGVRTHGTLESVNGPKAGSRGLTSLADTFEHVIEELLDEDQKVRPNEENNKDADLYTSRVMLSSQVPLEPPLLFLLEEYKNYLDAANMSMRVRRHSDPARRGELSVCDSISEWVTAADKKTAVDMSGGTVTVLEKVPVSKGQLKQYFYETKCNPMGYTKEGCRGIDKRHWNSQCRTTQSYVRALTMDSKKRIGWRFIRIDTSCVCTLTIKRGR | – | either decrease normal body weight gain or cause weight loss | – |
| GDNF: glial-derived neurotrophic factor (GDNF) (protein, UniProt P39905 78-211, looked up) Glial cell line-derived …: SPDKQMAVLPRRERNRQAAAANPENSRGKGRRGQRGKNRGCVLTAIHLNVTDLGLGYETKEELIFRYCSGSCDAAETTYDKILKNLSRNRRLVSDKVGQACCRPIAFDDDLSFLDDNLVYHILRKHSAKRCGCI | – | either decrease normal body weight gain or cause weight loss | – |
